Test results as given in patent US8093386B2, “Thioaryl substituted inhibitors of zinc proteases and their use” (Bracco Imaging S.p.A, priority 2006, dated 2012).

How the values were obtained:
Type in all cases: biochemical
MMP-1 = target: T1, MMP-1 (Homo sapiens, UniProt P03956); test: In vitro fluorometric inhibition assay of MMPs: MMP-1; conditions: Table I
T1 construct: purchased Calbiochem
T1 sequence (P03956 100-469): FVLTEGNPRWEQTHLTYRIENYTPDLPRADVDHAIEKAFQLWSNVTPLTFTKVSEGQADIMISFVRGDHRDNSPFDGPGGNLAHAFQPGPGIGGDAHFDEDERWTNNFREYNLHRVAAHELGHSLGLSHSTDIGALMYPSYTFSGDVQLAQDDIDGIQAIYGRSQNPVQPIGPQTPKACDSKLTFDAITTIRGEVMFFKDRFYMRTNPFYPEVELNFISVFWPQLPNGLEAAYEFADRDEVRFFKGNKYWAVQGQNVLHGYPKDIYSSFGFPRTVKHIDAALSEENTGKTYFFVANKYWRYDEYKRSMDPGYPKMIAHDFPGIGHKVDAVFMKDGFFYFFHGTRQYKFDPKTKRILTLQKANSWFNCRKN
Method: (§1) Analysis of the In Vitro Inhibition Activity of Zinc Metalloproteinases: In Vitro Inhibition of MMMPs
(§2) The human recombinant Progelatinase A (pro-MMP-2), B (pro-MMP-9), MMP-14cd and MMP-16cd, were provided by Prof. Gillian Murphy (Oncology Department, Cambridge University, UK); pro-MMP-1, pro-MMP-3, pro-MMP-7, pro-MMP-8, pro-MMP-13 and pro-MMP-14 were bought from Calbiochem. The proenzymes were activated immediately before the use with p-aminophenylmercuric acetate (APMA 2 mM for 1 h at 37° C. for MMP-1, MMP-2 and MMP-8, 1 mM for 1 h at 37° C. for MMP-9 and MMP-7, 1 mM for 30 min at 37° C. for MMP-13). Pro-MMP-14 and pro-MMP-3 were activated with trypsin 5 μg/ml for 15 min at 37° C. followed the soybean trypsin inhibitor (SBTI) 23 μg/ml for pro-MMP-14 and 62 μg/ml for pro-MMP-3. The catalytic domains of MMP-14 and MMP-16 were utilized without activation.
(§3) For the assay measurements, the stock solutions of the inhibitor (DMSO, 100 mM) were further diluted up to 7 different concentrations (0.01 nM-300 μM) for each MMP, in the buffer for the fluorometric assay (FAB: Tris 50 mM, pH=7.5, NaCl 150 mM, CaCl2 10 mM, Brij 35 0.05% and DMSO 1%). The solutions of activated enzyme (final concentrations 2.9 nM for MMP-2, 2.7 nM for MMP-9, 2.4 nM for MMP-7, 1 nM for MMP-14 and MMP-3, 1.5 nM for MMP-8 and MMP-16cd, 0.84 nM for MMP-14cd, 0.66 nM for MMP-13 and 0.20 nM for MMP-1) and of inhibitor were incubated in the assay buffer for 4 h at 25° C. After the addition of solution of fluorogenic substrate 200 μM Mca-Arg-Pro-Lys-Pro-Val-Glu-Nva-Trp-Arg-Lys(Dnp)-NH2 (Sigma) for MMP-3 and Mca-Lys-Pro-Leu-Gly-Leu-Dpa-Ala-Arg-NH2 (Bachem) for all the other enzymes in DMSO (final concentration 2 μM), the hydrolysis were monitored every 15 sec for 20 min, recording the increase in fluorescence (λex=325 nm, λem=400 nm) with a Molecular Device SpectraMax Gemini XS plates reader. The assays were made in triplicate in a total volume of 200 μl per well on 96 well-plates for microtitolation (Corning, black, NBS). The control wells were without inhibitor.
(§4) The inhibition activity of MMP was expressed in relative fluorescence unit (RFU). The percentage of inhibition was calculated using control reactions without inhibitor.
(§5) IC50 was determined using the formula: Vi/Vo=1/(1+[I]/IC50), wherein Vi is the initial rate of the substrate scission in presence of the inhibitor at the concentration [I] and Vo is the initial rate in the absence of inhibitor. The results were analyzed with the SoftMax Pro software and the GraFit software.

MMP-2 = target: T2, MMP-2 (Homo sapiens, UniProt P08253); test: In vitro fluorometric inhibition assay of MMPs: MMP-2
T2 construct: gift of Prof; Gillian Murphy (Oncology Department, Cambridge University, UK)
T2 sequence (P08253 110-660): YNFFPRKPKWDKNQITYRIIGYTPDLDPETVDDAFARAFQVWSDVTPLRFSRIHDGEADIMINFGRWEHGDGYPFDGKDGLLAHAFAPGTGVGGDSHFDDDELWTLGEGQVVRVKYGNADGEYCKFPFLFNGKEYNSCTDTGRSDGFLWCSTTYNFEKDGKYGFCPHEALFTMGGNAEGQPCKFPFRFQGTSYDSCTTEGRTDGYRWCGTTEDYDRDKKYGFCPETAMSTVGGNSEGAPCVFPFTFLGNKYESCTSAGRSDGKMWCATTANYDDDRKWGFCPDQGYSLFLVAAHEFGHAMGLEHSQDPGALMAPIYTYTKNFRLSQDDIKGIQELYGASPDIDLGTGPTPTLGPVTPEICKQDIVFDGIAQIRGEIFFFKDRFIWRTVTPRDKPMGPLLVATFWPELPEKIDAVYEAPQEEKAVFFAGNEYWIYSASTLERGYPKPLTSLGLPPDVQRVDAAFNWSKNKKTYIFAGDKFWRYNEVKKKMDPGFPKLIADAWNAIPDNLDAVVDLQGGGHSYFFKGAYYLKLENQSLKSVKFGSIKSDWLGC
Method: as §1, §2, §3, §4, §5

MMP-9 = target: T3, MMP-9 (Homo sapiens, UniProt P14780); test: In vitro fluorometric inhibition assay of MMPs: MMP-9
T3 construct: gift of Prof; Gillian Murphy (Oncology Department, Cambridge University, UK)
Method: as §1
as §2, with “The proenzymes were activated immediately before the use with p-aminophenylmercuric acetate (APMA 2 mM for 1 h at 37° C. for MMP-1, MMP-2 and MMP-8, 1 mM for 1 h at 37° C. for MMP-9 and MMP-7, 1 mM for 30 min at 37° C. for MMP-13).” left out
as §3, with “The solutions of activated enzyme (final concentrations 2.9 nM for MMP-2, 2.7 nM for MMP-9, 2.4 nM for MMP-7, 1 nM for MMP-14 and MMP-3, 1.5 nM for MMP-8 and MMP-16cd, 0.84 nM for MMP-14cd, 0.66 nM for MMP-13 and 0.20 nM for MMP-1) and of inhibitor were incubated in the assay buffer for 4 h at 25° C.” left out
as §4, §5

TACE (ADAM17) = target: T4, TACE (ADAM17) (Homo sapiens, UniProt P78536); test: Inhibition of ADAMs: activity on TACE (ADAM17), fluorometric assay
T4 construct: purchased CalBiochem
Method: Inhibition of ADAMS: Activity on TACE (ADAM17) Method 1: (only TACE)
The human recombinant TACE, from CalBiochem, was dissolved in FAB buffer (Tris 50 mM, pH=7.5, NaCl 150 mM, CaCl2 10 mM, Brij 35 0.05% and DMSO 1%) at the concentration of 200 μg/mL (2.85 μM) as stock solution. For the assay measurements, the stock solutions of the inhibitor (DMSO, 100 mM) were further diluted up to seven different concentrations (0.01 nM-300 μM) in FAB buffer. A solution of the enzyme (final concentration 3 nM) and the solutions of the inhibitors at different concentrations were incubated in FAB for 20 minutes at 25° C. After the addition of a 200 μM solution of the substrate Mca-Lys-Pro-Leu-Gly-Leu-Dap(Dnp)-Ala-Arg-NH2 (Bachem) in DMSO (final concentration 2 μM), the hydrolysis was monitored for 20 min, recording the increase in fluorescence (λex=325 nm, λem=400 nm) using a Molecular Device SpectraMax Gemini XS plates reader. The assays were made in triplicate in a total volume of 200 μl per well, on 96 well microplates (Corning, black, NBS). The inhibition activity of TACE was expressed in relative fluorescent units (RFU). The percentage of inhibition was calculated based in respect to the blanks control without inhibitor. The IC50 was determined following the equation: Vi/Vo=1/(1+[I]/IC50), where Vi is the initial rate of the hydrolysis of the substrate in the presence of the inhibitor at the concentration [I] and Vo is the initial rate in the absence of inhibitor. The results were analysed using the software SoftMax Pro and GraFit.

T4 sequence (P78536 215-671 limits assumed): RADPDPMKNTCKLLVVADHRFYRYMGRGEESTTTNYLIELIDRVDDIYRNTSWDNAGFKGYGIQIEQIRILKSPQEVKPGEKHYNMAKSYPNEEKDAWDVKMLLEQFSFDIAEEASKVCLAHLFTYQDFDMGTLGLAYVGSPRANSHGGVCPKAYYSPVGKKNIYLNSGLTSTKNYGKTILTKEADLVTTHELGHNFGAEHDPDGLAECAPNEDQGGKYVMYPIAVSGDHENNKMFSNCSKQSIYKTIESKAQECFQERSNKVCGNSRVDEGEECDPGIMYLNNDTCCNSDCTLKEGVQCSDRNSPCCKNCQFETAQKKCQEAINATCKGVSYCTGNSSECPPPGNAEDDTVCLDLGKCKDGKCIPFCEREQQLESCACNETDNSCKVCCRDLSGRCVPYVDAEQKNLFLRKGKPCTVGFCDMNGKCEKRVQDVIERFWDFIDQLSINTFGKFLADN
T3 sequence (P14780 107-707 limits assumed): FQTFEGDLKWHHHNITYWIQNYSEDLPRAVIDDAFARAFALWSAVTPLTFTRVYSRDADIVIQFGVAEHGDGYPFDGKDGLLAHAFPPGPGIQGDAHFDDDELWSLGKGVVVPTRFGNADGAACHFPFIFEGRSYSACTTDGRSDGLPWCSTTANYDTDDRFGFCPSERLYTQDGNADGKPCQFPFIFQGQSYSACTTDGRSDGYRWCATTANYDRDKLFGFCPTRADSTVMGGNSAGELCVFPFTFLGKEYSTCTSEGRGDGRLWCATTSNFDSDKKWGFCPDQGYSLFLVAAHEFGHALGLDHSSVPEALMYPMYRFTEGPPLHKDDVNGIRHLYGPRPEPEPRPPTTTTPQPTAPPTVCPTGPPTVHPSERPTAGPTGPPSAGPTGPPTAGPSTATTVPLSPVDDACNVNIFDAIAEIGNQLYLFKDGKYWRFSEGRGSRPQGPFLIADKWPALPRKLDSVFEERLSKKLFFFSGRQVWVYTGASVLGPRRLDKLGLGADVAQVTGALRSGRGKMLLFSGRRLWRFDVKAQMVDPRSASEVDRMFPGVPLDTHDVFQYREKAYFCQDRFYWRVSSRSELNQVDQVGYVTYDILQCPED

Row | Compound | IC50 (MMP-1; cells without (*)) [µM] | IC50 (MMP-2; Table I, cells without (*)) [µM] | IC50 (MMP-9; Table I, cells without (*)) [µM] | IC50 (TACE (ADAM17); Table IV) [µM] | other results
1 | O=C(O)Cc1ccccc1Sc1ccc(-c2ccccc2)cc1 | 334 ± 5.7 | 0.33 ± 0.026 | 6.7 ± 0.3 | – | –
2 | O=C(O)CC(C(=O)O)c1ccccc1Sc1ccc(-c2ccccc2)cc1 (stereo not shown) | 189 ± 28 | 11 ± 1.1 | 95 ± 8.7 | – | –
3 | O=C1CC(c2ccccc2Sc2ccc(-c3ccccc3)cc2)C(=O)N1O (stereo not shown) | 83 ± 11 | 12 ± 0.8 | 35 ± 2.7 | – | –
4 | O=C1CC(c2ccccc2S(=O)(=O)c2ccc(-c3ccccc3)cc2)C(=O)N1O (stereo not shown) | 186 ± 8 | 7 ± 0.5 | 47 ± 2.7 | – | –
5 | O=C(O)CCC(C(=O)O)c1ccccc1Sc1ccc(-c2ccccc2)cc1 (stereo not shown) | 190 ± 10 | 1.8 ± 0.16 | 17 ± 0.96 | – | –
6 | O=C(Cc1ccccc1Sc1ccc(-c2ccccc2)cc1)NO [Compound 21a] | – | – | – | 13.4 ± 1.93 | IC50 (MMP-1; cells marked (*)): 171 ± 5 µM; IC50 (MMP-2; Table I, cells marked (*)): 0.0411 ± 0.0014 µM; IC50 (MMP-9; Table I, cells marked (*)): 1.2 ± 0.2 µM
7 | COc1ccc(Sc2ccccc2CC(=O)NO)cc1 [Compound 21b, N-hydroxy-2-(2-(4-methoxyphenylthio)phenyl)acetamide] | – | – | – | 10.2 ± 0.67 | IC50 (MMP-2; Table IV): 6.2 ± 0.3 µM
8 | CC#CCOc1ccc(Sc2ccccc2CC(=O)NO)cc1 [Compound 21c, 2-(2-(4-(but-2-iniloxy)phenylthio)phenyl)-N-hydroxyacetamide] | – | – | – | – | IC50 (MMP-2; text b547): 1.45 ± 0.033 µM; IC50 (TACE (ADAM17); text b547): 0.462 ± 0.021 µM
9 | COc1ccc(-c2ccc(Sc3ccccc3CC(=O)NO)cc2)cc1 [Compound 24, N-hydroxy-2-(2-(4′-methoxybiphenyl-4-ylthio)phenyl)acetamide] | – | – | – | 46.2 ± 5.34 | IC50 (MMP-2; Table I, cells marked (*)): 0.0068 ± 0.00053 µM; IC50 (MMP-2; Table IV): 0.0068 ± 0.00053 µM; IC50 (MMP-9; Table I, cells marked (*)): 0.12 ± 0.017 µM; IC50 (MMP-9; Table IV): 0.12 ± 0.017 µM
